By EC50 is commonly meant the midpoint of the concentration-response curve.

Here are results for 27 molecules from US10730874B2 (Shire Human Genetic Therapies, Inc., priority 2018, dated 2020).

The first test deals with human activated kallikrein enzyme (plasma kallikrein) (Homo sapiens (Human), UniProt P03952). As to the kind of experiment: Inhibition of human activated plasma kallikrein, fluorogenic peptide substrate assay, 500 pM enzyme format. It is filed as biochemical. The conditions noted are these: 500 pM activated kallikrein enzyme, 300 uM Pro-Phe-Arg-7-amido-4-methylcoumarin substrate, 30 min preincubation, 10 min at RT; read-out: Primary Dose Response Assay: Average EC50. The essentials: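 Buffer 20 mM Tris pH 7.5, EDTA, NaCl, PEG-400, Triton X-100; 300 uM Pro-Phe-Arg-AMC; enzyme–inhibitor preincubation 30 min RT. Format one: 500 pM kallikrein, 10 min RT reaction; format two: 5 pM kallikrein, 18 h RT reaction. Fluorescence read at 460 nm (380 nm excitation).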
Sequence of human activated kallikrein enzyme (plasma kallikrein) (P03952 391-638): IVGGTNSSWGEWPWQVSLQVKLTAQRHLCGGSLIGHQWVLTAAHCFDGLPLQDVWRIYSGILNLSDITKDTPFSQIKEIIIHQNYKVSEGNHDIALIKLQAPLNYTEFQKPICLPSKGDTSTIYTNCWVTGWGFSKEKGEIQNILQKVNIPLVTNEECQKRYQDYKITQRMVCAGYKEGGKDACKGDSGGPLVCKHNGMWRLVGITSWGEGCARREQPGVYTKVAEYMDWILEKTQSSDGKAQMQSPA
Sequence of human activated kallikrein enzyme (plasma kallikrein) (P03952 20-390 partner): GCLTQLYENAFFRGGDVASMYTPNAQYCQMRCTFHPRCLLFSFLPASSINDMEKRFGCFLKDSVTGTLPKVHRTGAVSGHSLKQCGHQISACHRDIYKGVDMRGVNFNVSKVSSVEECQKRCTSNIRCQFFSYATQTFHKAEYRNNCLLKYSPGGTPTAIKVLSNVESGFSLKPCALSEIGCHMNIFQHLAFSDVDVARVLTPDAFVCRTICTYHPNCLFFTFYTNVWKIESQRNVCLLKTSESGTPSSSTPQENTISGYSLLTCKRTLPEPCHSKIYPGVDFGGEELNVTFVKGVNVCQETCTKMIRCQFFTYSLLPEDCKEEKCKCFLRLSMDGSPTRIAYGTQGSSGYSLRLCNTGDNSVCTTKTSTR
Regarding `O=C(NCc1ncn2ccc(Cl)cc12)c1cn(Cc2cn3cc(C4CC4)ccc3n2)nc1C1CC1C(=O)O` (stereo not drawn) [Example I-120, 2-(4-(((7-chloroimidazo[1,5-a]pyridin-1-yl)methyl)carbamoyl)-1-((6-cyclopropylimidazo[1,2-a]pyridin-2-yl)methyl)-1H-pyrazol-3-yl)cyclopropane-1-carboxylic acid], the concentration giving a half-maximal response (EC50) was < 1 nM.

For `CCOC(=O)C(C)(C)Cc1cc(C2CC2)cn2cc(Cn3cc(C(=O)NCc4ncn5ccc(Cl)c(F)c45)nn3)nc12` [Example I-205, ethyl 3-(2-((4-(((7-chloro-8-fluoroimidazo[1,5-a]pyridin-1-yl)methyl)carbamoyl)-1H-1,2,3-triazol-1-yl)methyl)-6-cyclopropylimidazo[1,2-a]pyridin-8-yl)-2,2-dimethylpropanoate], the 50% effective concentration (EC50) is < 1 nM.

Consider `O=C(NCc1ncn2ccc(Cl)c(F)c12)c1cn(Cc2cn3cc(Cl)cc(C4COC4)c3n2)nn1` [Example I-187, 1-((6-chloro-8-(oxetan-3-yl)imidazo[1,2-a]pyridin-2-yl)methyl)-N-((7-chloro-8-fluoroimidazo[1,5-a]pyridin-1-yl)methyl)-1H-1,2,3-triazole-4-carboxamide], for which the 50% effective concentration (EC50) is < 1 nM.

With `O=C(NCc1ncn2ccc(Br)cc12)c1cnn(Cc2cn3cc(Br)c(Cl)cc3n2)c1` [Example I-37, 1-((6-bromo-7-chloroimidazo[1,2-a]pyridin-2-yl)methyl)-N-((7-bromoimidazo[1,5-a]pyridin-1-yl)methyl)-1H-pyrazole-4-carboxamide], the EC50 lay within 10 to 100 nM.

As for `O=C(NCc1ncn2ccc(Cl)c(F)c12)c1cn(Cc2cn3cc(C4CC4)cc(-n4cccn4)c3n2)nn1` [Example I-220, N-((7-chloro-8-fluoroimidazo[1,5-a]pyridin-1-yl)methyl)-1-((6-cyclopropyl-8-(1H-pyrazol-1-yl)imidazo[1,2-a]pyridin-2-yl)methyl)-1H-1,2,3-triazole-4-carboxamide], the EC50 was < 1 nM.

For the molecule `O=C(NCc1ncn2ccc(Cl)c(F)c12)c1cn(Cc2cn3cc(C4CC4)cc(Br)c3n2)nn1` [Example I-204, 1-((8-bromo-6-cyclopropylimidazo[1,2-a]pyridin-2-yl)methyl)-N-((7-chloro-8-fluoroimidazo[1,5-a]pyridin-1-yl)methyl)-1H-1,2,3-triazole-4-carboxamide], the EC50 was < 1 nM.

For `O=C(NCc1ncn2ccc(Cl)cc12)c1cnn(Cc2cn3c(C4CC4)cccc3n2)c1` [Example I-22, N-((7-chloroimidazo[1,5-a]pyridin-1-yl)methyl)-1-((5-cyclopropylimidazo[1,2-a]pyridin-2-yl)methyl)-1H-pyrazole-4-carboxamide], the concentration giving a half-maximal response (EC50) lay within 100 to 2000 nM.

As to `CC(C)=Cc1ccn2cc(Cn3cc(C(=O)NCc4ncn5ccc(Cl)cc45)cn3)nc2c1` [Example I-42, N-((7-chloroimidazo[1,5-a]pyridin-1-yl)methyl)-1-((7-(2-methylprop-1-en-1-yl)imidazo[1,2-a]pyridin-2-yl)methyl)-1H-pyrazole-4-carboxamide], the EC50 was in the range of 10 to 100 nM.

Regarding `O=C(NCc1nc(C(F)F)n2ccc(Br)cc12)c1cnn(Cc2cn3cc(C4CC4)ccc3n2)c1` [Example I-83, N-((7-bromo-3-(difluoromethyl)imidazo[1,5-a]pyridin-1-yl)methyl)-1-((6-cyclopropylimidazo[1,2-a]pyridin-2-yl)methyl)-1H-pyrazole-4-carboxamide], the half-maximal effective concentration (EC50) is 10 to 100 nM.

Turning to `CC(c1cn2cc(C3CC3)ccc2n1)n1cc(C(=O)NCc2ncn3ccc(Cl)cc23)nn1` (stereo not drawn) [Example I-124, N-((7-chloroimidazo[1,5-a]pyridin-1-yl)methyl)-1-(1-(6-cyclopropylimidazo[1,2-a]pyridin-2-yl)ethyl)-1H-1,2,3-triazole-4-carboxamide], the EC50 is 1 to 10 nM.

Consider `O=C(NCc1ncn2ccc(Cl)c(F)c12)c1cn(Cc2cn3ncc(C4CC4)cc3n2)nn1` [Example I-217, N-((7-chloro-8-fluoroimidazo[1,5-a]pyridin-1-yl)methyl)-1-((7-cyclopropylimidazo[1,2-b]pyridazin-2-yl)methyl)-1H-1,2,3-triazole-4-carboxamide], for which the EC50 was in the range of 1 to 10 nM.

Consider `CCOC(=O)c1c(Cn2cc(C(=O)NCc3ncn4ccc(Cl)c(F)c34)nn2)cc2ccc(C3CC3)cn12` [Example I-268, ethyl 2-((4-(((7-chloro-8-fluoroimidazo[1,5-a]pyridin-1-yl)methyl)carbamoyl)-1H-1,2,3-triazol-1-yl)methyl)-6-cyclopropylindolizine-3-carboxylate], for which the concentration for a half-maximal effect (EC50) is 1 to 10 nM.

For `COC(=O)c1ccc2nc(Cn3cc(C(=O)NCc4ncn5ccc(Cl)cc45)cn3)cn2c1` [Example I-91, methyl 2-((4-(((7-chloroimidazo[1,5-a]pyridin-1-yl)methyl)carbamoyl)-1H-pyrazol-1-yl)methyl)imidazo[1,2-a]pyridine-6-carboxylate], the concentration giving a half-maximal response (EC50) lay in the range of 10 to 100 nM.

As for `O=C(NCc1ncn2ccc(Cl)cc12)c1cnn(Cc2cn3cc(C4CC4)cc(Cc4nnco4)c3n2)c1` [Example I-155, 1-((8-((1,3,4-oxadiazol-2-yl)methyl)-6-cyclopropylimidazo[1,2-a]pyridin-2-yl)methyl)-N-((7-chloroimidazo[1,5-a]pyridin-1-yl)methyl)-1H-pyrazole-4-carboxamide], the EC50 is < 1 nM.

For the molecule `O=C(NCc1ncn2ccc(Cl)c(F)c12)c1cn(Cc2cn3cc(C4CC4)cc(C4(F)COC4)c3n2)nn1` [Example I-167, N-((7-chloro-8-fluoroimidazo[1,5-a]pyridin-1-yl)methyl)-1-((6-cyclopropyl-8-(3-fluorooxetan-3-yl)imidazo[1,2-a]pyridin-2-yl)methyl)-1H-1,2,3-triazole-4-carboxamide], the EC50 was < 1 nM.

On to `O=C(NCc1ncn2ccc(Cl)c(F)c12)c1cn(Cc2cn3cc(C4CC4)c(F)cc3n2)nn1` [Example I-239, N-((7-chloro-8-fluoroimidazo[1,5-a]pyridin-1-yl)methyl)-1-((6-cyclopropyl-7-fluoroimidazo[1,2-a]pyridin-2-yl)methyl)-1H-1,2,3-triazole-4-carboxamide], for which the concentration giving a half-maximal response (EC50) lay in the range of 1 to 10 nM.

For `O=C(NCc1ncn2ccc(Cl)c(F)c12)c1cn(Cc2cn3cc(C4CC4)cc(-n4cnnc4)c3n2)nn1` [Example I-180, N-((7-chloro-8-fluoroimidazo[1,5-a]pyridin-1-yl)methyl)-1-((6-cyclopropyl-8-(4H-1,2,4-triazol-4-yl)imidazo[1,2-a]pyridin-2-yl)methyl)-1H-1,2,3-triazole-4-carboxamide], the EC50 is < 1 nM.

For the molecule `O=C(NCc1ncn2ccc(Cl)c(F)c12)c1cn(Cc2cn3cc(C4CC4)cc(C4COC4)c3n2)nn1` [Example I-169, N-((7-chloro-8-fluoroimidazo[1,5-a]pyridin-1-yl)methyl)-1-((6-cyclopropyl-8-(oxetan-3-yl)imidazo[1,2-a]pyridin-2-yl)methyl)-1H-1,2,3-triazole-4-carboxamide], the concentration giving a half-maximal response (EC50) was < 1 nM.

Turning to `O=C(NCc1ncn2ccc(Br)cc12)c1cn(Cc2cn3cc(C4CC4)ccc3n2)nc1C1CC1` [Example I-85, N-((7-bromoimidazo[1,5-a]pyridin-1-yl)methyl)-3-cyclopropyl-1-((6-cyclopropylimidazo[1,2-a]pyridin-2-yl)methyl)-1H-pyrazole-4-carboxamide], the EC50 is < 1 nM.

Take `O=C(NCc1ncn2ccc(Cl)cc12)c1nc(Cc2cn3cc(C4CC4)ccc3n2)no1` [Example I-190, N-((7-chloroimidazo[1,5-a]pyridin-1-yl)methyl)-3-((6-cyclopropylimidazo[1,2-a]pyridin-2-yl)methyl)-1,2,4-oxadiazole-5-carboxamide]: the half-maximal effective concentration (EC50) was < 1 nM.

With `O=C(NCc1ncn2ccc(Cl)cc12)c1nnn(Cc2cn3cc(C4CC4)ccc3n2)n1` [Example I-110, N-((7-chloroimidazo[1,5-a]pyridin-1-yl)methyl)-2-((6-cyclopropylimidazo[1,2-a]pyridin-2-yl)methyl)-2H-tetrazole-5-carboxamide], the EC50 was < 1 nM.

For the molecule `Cc1nncn1-c1cc(C2CC2)cn2cc(Cn3cc(C(=O)NCc4ncn5ccc(Cl)c(F)c45)nn3)nc12` [Example I-249, N-((7-chloro-8-fluoroimidazo[1,5-a]pyridin-1-yl)methyl)-1-((6-cyclopropyl-8-(3-methyl-4H-1,2,4-triazol-4-yl)imidazo[1,2-a]pyridin-2-yl)methyl)-1H-1,2,3-triazole-4-carboxamide], the EC50 is < 1 nM.

`O=C(NCc1ncn2ccc(Cl)c(F)c12)c1cn(Cc2cn3nc(C4CC4)ccc3n2)cn1` [Example I-288, N-((7-chloro-8-fluoroimidazo[1,5-a]pyridin-1-yl)methyl)-1-((6-cyclopropylimidazo[1,2-b]pyridazin-2-yl)methyl)-1H-imidazole-4-carboxamide]: the concentration for a half-maximal effect (EC50) is < 1 nM.

`O=C(O)c1ccc(-n2c(Cn3cc(C(=O)NCc4ncn5ccc(Cl)c(F)c45)nn3)cc3cc(C4CC4)ccc32)cc1` [Example I-259, 4-(2-((4-(((7-chloro-8-fluoroimidazo[1,5-a]pyridin-1-yl)methyl)carbamoyl)-1H-1,2,3-triazol-1-yl)methyl)-5-cyclopropyl-1H-indol-1-yl)benzoic acid]: the half-maximal effective concentration (EC50) was in the range of 1 to 10 nM.

On to `NCCOCc1cc(C2CC2)cn2cc(Cn3cc(C(=O)NCc4ncn5ccc(Cl)c(F)c45)nn3)nc12` [Example I-302, 1-((8-((2-aminoethoxy)methyl)-6-cyclopropylimidazo[1,2-a]pyridin-2-yl)methyl)-N-((7-chloro-8-fluoroimidazo[1,5-a]pyridin-1-yl)methyl)-1H-1,2,3-triazole-4-carboxamide], for which the EC50 is < 1 nM.

The test is the same for the next values; noted with them: comparative compounds (Table II); assay format with 500 pM (500 μM in the source) activated kallikrein; read-out: Primary Dose Response Assay: Average EC50.
With `O=C(NCc1nsc2ccc(Cl)cc12)c1cnn(Cc2cn3cc(C4CC4)ccc3n2)c1` [reference compound], the concentration giving a half-maximal response (EC50) is 10 to 100 nM.

As to `Cc1ccc2nc(Cn3cc(C(=O)NCc4cnc5ccc(Cl)cn45)cn3)cn2c1` [reference compound], the EC50 lay in the range of 100 to 2000 nM.
